Test results taken from PubChem BioAssay (NCI).
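Values below derive from 48-hour exposures of cells grown in 96-well plates, with endpoints linearly interpolated between the two concentrations bracketing the appropriate inhibition level. Here, GI50 denotes the concentration required for 50% inhibition of growth. TGI denotes the concentration required for complete inhibition of growth.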

How the values were obtained:
Assay in all cases: DTP human tumour cell line panel, 48 h
786-0 renal = system: 786-0 renal
A498 renal = system: A498 renal
A549 NSCLC = system: A549 NSCLC
ACHN renal = system: ACHN renal
BT-549 breast = system: BT-549 breast
CAKI-1 renal = system: CAKI-1 renal
CCRF-CEM leukemia = system: CCRF-CEM leukemia
COLO 205 colon = system: COLO 205 colon
DU-145 prostate = system: DU-145 prostate
EKVX NSCLC = system: EKVX NSCLC
HCC-2998 colon = system: HCC-2998 colon
HCT-116 colon = system: HCT-116 colon
HCT-15 colon = system: HCT-15 colon
HL-60(TB) leukemia = system: HL-60(TB) leukemia
HOP-62 NSCLC = system: HOP-62 NSCLC
HOP-92 NSCLC = system: HOP-92 NSCLC
HS 578T breast = system: HS 578T breast
HT29 colon = system: HT29 colon
IGROV1 ovarian = system: IGROV1 ovarian
K-562 leukemia = system: K-562 leukemia
KM12 colon = system: KM12 colon
LOX IMVI melanoma = system: LOX IMVI melanoma
M14 melanoma = system: M14 melanoma
MALME-3M melanoma = system: MALME-3M melanoma
MCF7 breast = system: MCF7 breast
MDA-MB-231 breast = system: MDA-MB-231 breast
MDA-MB-435 = system: MDA-MB-435
MOLT-4 leukemia = system: MOLT-4 leukemia
NCI-H226 lung = system: NCI-H226 lung
NCI-H23 lung = system: NCI-H23 lung
NCI-H460 lung = system: NCI-H460 lung
NCI-H522 lung = system: NCI-H522 lung
NCI/ADR-RES ovarian = system: NCI/ADR-RES ovarian
OVCAR-3 ovarian = system: OVCAR-3 ovarian
OVCAR-4 ovarian = system: OVCAR-4 ovarian
OVCAR-5 ovarian = system: OVCAR-5 ovarian
OVCAR-8 ovarian = system: OVCAR-8 ovarian
PC-3 prostate = system: PC-3 prostate
RPMI-8226 leukemia = system: RPMI-8226 leukemia
RXF 393 renal = system: RXF 393 renal
SF-268 CNS = system: SF-268 CNS
SF-295 CNS = system: SF-295 CNS
SF-539 CNS = system: SF-539 CNS
SK-MEL-2 melanoma = system: SK-MEL-2 melanoma
SK-MEL-28 melanoma = system: SK-MEL-28 melanoma
SK-MEL-5 melanoma = system: SK-MEL-5 melanoma
SK-OV-3 ovarian = system: SK-OV-3 ovarian
SN12C renal = system: SN12C renal
SNB-19 CNS = system: SNB-19 CNS
SR leukemia = system: SR leukemia
SW-620 colon = system: SW-620 colon
T-47D breast = system: T-47D breast
TK-10 renal = system: TK-10 renal
U251 CNS = system: U251 CNS
UACC-257 melanoma = system: UACC-257 melanoma
UACC-62 melanoma = system: UACC-62 melanoma
UO-31 renal = system: UO-31 renal

Compound `NC(=O)c1c(OCc2c(F)cc(Br)cc2F)nsc1NC(=O)NCCCCN1CCCC1` has a GI50 (786-0 renal) of 1.43 µM, a TGI (786-0 renal) of 4.42 µM and a GI50 (A498 renal) of 0.086 µM. For the same compound, the TGI (A498 renal) was 0.91 µM, the GI50 (A549 NSCLC) was 2.97 µM and the TGI (A549 NSCLC) was > 10 µM. It also gave a GI50 (ACHN renal) of 1.18 µM, a TGI (ACHN renal) of 5.25 µM and a GI50 (BT-549 breast) of 6.64 µM. For the same compound, the TGI (BT-549 breast) was > 10 µM, the GI50 (CAKI-1 renal) was 2.49 µM and the TGI (CAKI-1 renal) was > 10 µM. For the same compound, the GI50 (CCRF-CEM leukemia) was 2.77 µM, the TGI (CCRF-CEM leukemia) was 8.17 µM and the GI50 (COLO 205 colon) was 1.9 µM. The TGI (COLO 205 colon) was 4.05 µM, the GI50 (DU-145 prostate) was 4.59 µM and the TGI (DU-145 prostate) was > 10 µM. The GI50 (EKVX NSCLC) was > 10 µM, the TGI (EKVX NSCLC) was > 10 µM and the GI50 (HCC-2998 colon) was 5.26 µM. The TGI (HCC-2998 colon) was > 10 µM, the GI50 (HCT-116 colon) was 2.22 µM and the TGI (HCT-116 colon) was 8.41 µM. The GI50 (HCT-15 colon) was 2.85 µM, the TGI (HCT-15 colon) was > 10 µM and the GI50 (HL-60(TB) leukemia) was 2.4 µM. The TGI (HL-60(TB) leukemia) was 4.68 µM, the GI50 (HOP-62 NSCLC) was 1.58 µM and the TGI (HOP-62 NSCLC) was > 10 µM. For the same compound, the GI50 (HOP-92 NSCLC) was 0.323 µM, the TGI (HOP-92 NSCLC) was > 10 µM and the GI50 (HS 578T breast) was 0.157 µM. The TGI (HS 578T breast) was 0.971 µM, the GI50 (HT29 colon) was 1.46 µM and the TGI (HT29 colon) was 6.77 µM. The GI50 (IGROV1 ovarian) was 0.327 µM, the TGI (IGROV1 ovarian) was 4.29 µM and the GI50 (K-562 leukemia) was 1.44 µM. For the same compound, the TGI (K-562 leukemia) was 5.91 µM, the GI50 (KM12 colon) was 2.73 µM and the TGI (KM12 colon) was > 10 µM. It also gave a GI50 (LOX IMVI melanoma) of 1.16 µM, a TGI (LOX IMVI melanoma) of 2.5 µM and a GI50 (M14 melanoma) of 1.6 µM. It also gave a TGI (M14 melanoma) of 3.46 µM, a GI50 (MALME-3M melanoma) of 1.73 µM and a TGI (MALME-3M melanoma) of 3.41 µM. For the same compound, the GI50 (MCF7 breast) was 1.99 µM, the TGI (MCF7 breast) was > 10 µM and the GI50 (MDA-MB-231 breast) was 1.55 µM. For the same compound, the TGI (MDA-MB-231 breast) was 5.02 µM, the GI50 (MDA-MB-435) was 2.26 µM and the TGI (MDA-MB-435) was 6.75 µM. For the same compound, the GI50 (MOLT-4 leukemia) was 2.14 µM, the TGI (MOLT-4 leukemia) was 9.76 µM and the GI50 (NCI-H226 lung) was 0.453 µM. For the same compound, the TGI (NCI-H226 lung) was > 10 µM, the GI50 (NCI-H23 lung) was 5.18 µM and the TGI (NCI-H23 lung) was > 10 µM. For the same compound, the GI50 (NCI-H460 lung) was 2.6 µM, the TGI (NCI-H460 lung) was > 10 µM and the GI50 (NCI-H522 lung) was 1.83 µM. The TGI (NCI-H522 lung) was 5.32 µM, the GI50 (NCI/ADR-RES ovarian) was 5.82 µM and the TGI (NCI/ADR-RES ovarian) was > 10 µM. The GI50 (OVCAR-3 ovarian) was 1.81 µM, the TGI (OVCAR-3 ovarian) was 4.52 µM and the GI50 (OVCAR-4 ovarian) was > 10 µM. For the same compound, the TGI (OVCAR-4 ovarian) was > 10 µM, the GI50 (OVCAR-5 ovarian) was 3.1 µM and the TGI (OVCAR-5 ovarian) was > 10 µM. For the same compound, the GI50 (OVCAR-8 ovarian) was 4 µM, the TGI (OVCAR-8 ovarian) was > 10 µM and the GI50 (PC-3 prostate) was 3.14 µM. The TGI (PC-3 prostate) was > 10 µM, the GI50 (RPMI-8226 leukemia) was 2.4 µM and the TGI (RPMI-8226 leukemia) was 6 µM. It also gave a GI50 (RXF 393 renal) of 0.362 µM, a TGI (RXF 393 renal) of 1.71 µM and a GI50 (SF-268 CNS) of 1.78 µM. For the same compound, the TGI (SF-268 CNS) was > 10 µM, the GI50 (SF-295 CNS) was 2.26 µM and the TGI (SF-295 CNS) was > 10 µM. The GI50 (SF-539 CNS) was 1.38 µM, the TGI (SF-539 CNS) was 2.92 µM and the GI50 (SK-MEL-2 melanoma) was > 10 µM. For the same compound, the TGI (SK-MEL-2 melanoma) was > 10 µM, the GI50 (SK-MEL-28 melanoma) was 1.71 µM and the TGI (SK-MEL-28 melanoma) was 3.35 µM. The GI50 (SK-MEL-5 melanoma) was 1.56 µM, the TGI (SK-MEL-5 melanoma) was 2.96 µM and the GI50 (SK-OV-3 ovarian) was > 10 µM. For the same compound, the TGI (SK-OV-3 ovarian) was > 10 µM, the GI50 (SN12C renal) was 1.08 µM and the TGI (SN12C renal) was 8.28 µM. The GI50 (SNB-19 CNS) was 2.27 µM, the TGI (SNB-19 CNS) was > 10 µM and the GI50 (SR leukemia) was 1.74 µM. For the same compound, the TGI (SR leukemia) was 4.37 µM, the GI50 (SW-620 colon) was 3.03 µM and the TGI (SW-620 colon) was > 10 µM. The GI50 (T-47D breast) was 1.18 µM, the TGI (T-47D breast) was > 10 µM and the GI50 (TK-10 renal) was 2.06 µM. It also gave a TGI (TK-10 renal) of 7.94 µM, a GI50 (U251 CNS) of 1.71 µM and a TGI (U251 CNS) of 5.51 µM. It also gave a GI50 (UACC-257 melanoma) of 1.85 µM, a TGI (UACC-257 melanoma) of 3.94 µM and a GI50 (UACC-62 melanoma) of 1.82 µM. For the same compound, the TGI (UACC-62 melanoma) was 3.93 µM, the GI50 (UO-31 renal) was 0.498 µM and the TGI (UO-31 renal) was 2.1 µM.
